Laboratory results published in PubChem BioAssay AID720632 (Broad Institute, 2013).
Active and inactive are the calls of the source. The rule behind the calls is not given here.

Target: Caspase-6 (Homo sapiens) (UniProt P55212)
Experiment: inhibition of CASP6 peptide cleavage – biochemical, VEID-R110 fluorescence, cherry-pick, dose response (AID 720632)
Conditions: caspase-6, VEID-R110 fluorogenic substrate

Sequence of Caspase-6 (Homo sapiens) (P55212 24-179 limits assumed): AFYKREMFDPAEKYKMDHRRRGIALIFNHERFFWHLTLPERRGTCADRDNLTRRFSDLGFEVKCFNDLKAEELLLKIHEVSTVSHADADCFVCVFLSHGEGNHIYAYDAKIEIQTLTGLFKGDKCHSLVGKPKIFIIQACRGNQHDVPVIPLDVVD
Sequence of Caspase-6 (Homo sapiens) (P55212 194-293 limits assumed): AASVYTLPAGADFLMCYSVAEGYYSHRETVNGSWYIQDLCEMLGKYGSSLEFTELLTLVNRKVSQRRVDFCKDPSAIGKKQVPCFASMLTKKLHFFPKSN

| Structure (SMILES) | activity change, negative = inhibition (at 26 µM (top of the series)) | activity change, negative = inhibition (at 23.5 µM (top of the series)) |
| --- | --- | --- |
| CO[C@@H]1CN(C)C(=O)c2ccc(NC(=O)C3CC3)cc2OC[C@H](C)N(Cc2ccccc2)C[C@@H]1C | inactive | – |
| CCC(=O)Nc1ccc2c(c1)OC[C@@H](C)N(C(=O)CC)C[C@H](C)[C@H](OC)CN(C)C2=O | inactive | – |
| O=C(O)C1Sc2[nH]c(=O)sc2C2c3ccc(O)cc3OC(=O)C12 (stereo unspecified) | inactive | – |
| O=C(CCCCCn1c(=S)[nH]c2cc3c(cc2c1=O)OCO3)N1CCN(c2ccc(F)cc2)CC1 | inactive | – |
| CCCN1C[C@@H](C)[C@@H](OC)CN(C)C(=O)c2ccc(NC(=O)CC)cc2OC[C@@H]1C | inactive | – |
| CCOC(=O)C1(Cc2ccccc2C)CCCN(C(=O)CCc2cccnc2)C1 (stereo unspecified) | inactive | – |
| CC(C)NC(=O)N1[C@H](CO)[C@@H](c2ccccc2)C12CN(C(=O)Cc1cccnc1)C2 | inactive | – |
| O=C1c2ccccc2C(=O)C1(CO)c1ccccc1 | inactive | – |
| O=C(c1nc2ccccn2c1CN1CCCC(c2nc3ccccc3o2)C1)N1CCCC1 (stereo unspecified) | inactive | – |
| CSCCC(NS(=O)(=O)c1ccccc1F)C(=O)NCC(C)(C)N1CCOCC1 (stereo unspecified) | inactive | – |
| O=C(CCCCCn1c(=S)[nH]c2cc3c(cc2c1=O)OCO3)N1CCN(Cc2ccccc2)CC1 | inactive | – |
| CN(C(=O)c1ccc(Cl)cc1)c1ccc(OCC(=O)Nc2cc(C(=O)O)ccc2Cl)cc1 | inactive | – |
| CO[C@H]1CN(C)C(=O)c2ccc(NC(=O)C3CC3)cc2OC[C@@H](C)N(Cc2ccccc2)C[C@@H]1C | inactive | – |
| O=C(NC1CCCCC1)C(c1ccnc2ccccc12)N1CCc2ccccc2C1 (stereo unspecified) | inactive | – |
| COc1ccccc1N(CC(=O)NCCSCc1ccccc1Cl)S(C)(=O)=O | inactive | – |
| COc1cc(OC)cc(C(=O)NNC(=O)CNC(=O)c2cccs2)c1 | inactive | – |
| O=C(Nc1cc(Cl)cc(Cl)c1)c1coc(=O)c(Br)c1 | inactive | – |
| Cc1cccc(C)c1OCC(=O)NCc1ccccc1 | inactive | – |
| CCC(=O)Nc1ccc2c(c1)OC[C@@H](C)N(C(=O)COC)C[C@H](C)[C@@H](OC)CN(C)C2=O | – | inactive |
| O=C(Cc1ccc([N+](=O)[O-])cc1)c1c(O)cc(O)cc1O | inactive | – |
| O=C(N/N=C/c1ccc[nH]1)c1ccccc1O | inactive | – |

| Structure (SMILES) | activity change, negative = inhibition (at 26 µM (top of the series)) | activity change, negative = inhibition (at 23.5 µM (top of the series)) |
| --- | --- | --- |
| CCCC(=O)Nc1ccc2c(c1)OC[C@@H](C)N(Cc1ccc(F)cc1)C[C@@H](C)[C@@H](OC)CN(C)C2=O | inactive | – |
| CC1CC(C)CN(S(=O)(=O)c2ccc(F)c(C(=O)NC3CCCCC3C)c2)C1 (stereo unspecified) | inactive | – |
| COc1ccc(OCCN2CCC(C(=O)NC(c3ccccn3)c3ccccc3OC)CC2)cc1 (stereo unspecified) | inactive | – |
| O=C(CCCn1c(=S)[nH]c2cc3c(cc2c1=O)OCO3)N1CCN(c2ccccc2F)CC1 | inactive | – |
| O=C(NCC1COc2ccccc2O1)c1ccc(F)c(S(=O)(=O)N2CCOCC2)c1 (stereo unspecified) | inactive | – |
| CCOC(=O)c1sc(C)c2c(=O)n(Cc3ccc(Cl)cc3)cnc12 | inactive | – |
| COc1ccccc1N(Cc1ccccc1)S(=O)(=O)c1cccc(C(=O)Nc2ccccn2)c1 | inactive | – |
| Cc1cccc(N2CCN(C(=O)CCCn3c(=S)[nH]c4cc5c(cc4c3=O)OCO5)CC2)c1C | inactive | – |
| CCC(CC)COC(=O)C1=C(C)NC(=O)NC1c1cc(OC)ccc1OC (stereo unspecified) | inactive | – |
| COc1ccc(S(=O)(=O)Nc2ccc(O)c(Sc3ncn[nH]3)c2)cc1 | inactive | – |
| O=C([C@H]1[C@H](CO)[C@H]2Cn3c(cccc3=O)[C@H]2N1Cc1cc(F)ccc1F)N1CCOCC1 | inactive | – |
| Cc1ccccc1C(=O)O/N=C(\N)c1ccccc1 | inactive | – |
| O=C1C2C3C=CC(CC3)C2C(=O)N1c1nccs1 (stereo unspecified) | inactive | – |
| COCC(=O)Nc1ccc2c(c1)OC[C@H](C)N(CC1CC1)C[C@@H](C)[C@H](OC)CN(C)C2=O | – | inactive |
| COc1ccc(OC)c(N/C(=N/c2nc(C)cc(C)n2)NC(C)=O)c1 | inactive | – |
| O=C(Oc1cccc(-n2cnnn2)c1)c1ccccc1Cl | inactive | – |
| COc1cc(NC(=O)c2cccnc2)c(Cl)cc1NC(=O)c1ccccc1 | inactive | – |
| C[C@@H](NC(=O)C[C@@H]1CC[C@@H](NC(=O)CN2CCOCC2)[C@@H](CO)O1)c1ccccc1 | inactive | – |
| Cc1cc(C)c(NC(=O)COC(=O)c2ccc([N+](=O)[O-])s2)c(C)c1 | inactive | – |
| CO[C@@H]1CN(C)C(=O)c2ccc(NC(=O)C3CC3)cc2OC[C@H](C)N(CC2CCOCC2)C[C@H]1C | inactive | – |
| O=C(N/N=C/c1cccnc1)c1cc(O)c(O)c(O)c1 | inactive | – |

| Structure (SMILES) | activity change, negative = inhibition (at 26 µM (top of the series)) | activity change, negative = inhibition (at 23.5 µM (top of the series)) |
| --- | --- | --- |
| CC(=O)Nc1ccc(C=NNc2ccc([N+](=O)[O-])cc2S(=O)(=O)Nc2ccccc2C(=O)O)cc1 | inactive | – |
| Nc1ccc2cn[nH]c2c1 | inactive | – |
| C/C(CC(=O)Nc1cc(C)ccn1)=N\NC(=O)c1cccc(C)c1O | inactive | – |
| CO[C@@H]1CN(C)C(=O)c2ccc(NC(=O)C3CC3)cc2OC[C@@H](C)N(Cc2ccccc2)C[C@H]1C | inactive | – |
| Cn1cc(C(CC(=O)O)C(=O)O)c2ccccc21 (stereo unspecified) | inactive | – |
| Cc1ccc(C)c(S(=O)(=O)N2CCN(C(C)C(=O)Nc3ccccc3-c3ccccc3)CC2)c1 (stereo unspecified) | inactive | – |
| CCC(=O)N1CCC1(C)C(=O)Nc1cccc2cccnc12 (stereo unspecified) | inactive | – |
| O=C(C[C@@H]1C[C@H]2c3cc(NC(=O)Nc4ccccc4F)ccc3O[C@H]2[C@H](CO)O1)NC1CCCC1 | inactive | – |
| O=C(N/N=C\c1ccc([N+](=O)[O-])o1)c1cncc(Br)c1 | inactive | – |
| COc1ccc(S(=O)(=O)N2CCOCC2)cc1C(=O)NCC(c1ccccc1)c1ccccc1 | inactive | – |
| O=C(ONC(=O)C1CCCCC1C(=O)NOC(=O)c1ccccc1)c1ccccc1 (stereo unspecified) | inactive | – |
| Nc1cc(C(Cl)=C(Cl)Cl)c(S(N)(=O)=O)cc1S(N)(=O)=O | inactive | – |
| Cc1ccc([N+](=O)[O-])cc1S(=O)(=O)Nc1ccc(C(=O)N2CCN(C(=O)c3ccco3)CC2)cc1 | inactive | – |
| CN1CCN(C(=O)c2cc(Cl)cc(Cl)c2)CC1 | inactive | – |
| CCOC(=O)c1c(C)c(C(=O)NCc2ccc(OC)cc2)c(C)n1C | inactive | – |
| O=C(CCCCCn1c(=S)[nH]c2cc3c(cc2c1=O)OCO3)N1CCN(C2CCCCC2)CC1 | inactive | – |
| Cc1ccc(NS(=O)(=O)c2ccc(Br)s2)nc1 | inactive | – |
| CC(C)OCCCNC(=O)CN1C(=O)COc2ccc(S(=O)(=O)N3CCCCCC3)cc21 | inactive | – |
| CCO[C@H]1OC(C(=O)N2CCOCC2)=C[C@@H](c2ccc3c(c2)OCO3)[C@@H]1CCCO | inactive | – |
